Results reported in ChEMBL document CHEMBL4431308, “Structure and Configuration of Phosphoeleganin, a Protein Tyrosine Phosphatase 1B Inhibitor from the Mediterranean Ascidian Sidnyum elegans” (J Nat Prod, 2016).
Activity calls are given as the source filed them. The rule behind the calls is not given here.

What was measured:
[1] = test system: MCF7; assay: Cytotoxicity against human MCF7 cells assessed as reduction in cell viability after 24 hrs by MTT assay; format: cell-based; conditions: MCF7, 24 h
[2] = target: T1, Tyrosine-protein phosphatase non-receptor type 1 (Homo sapiens, UniProt P18031); assay: Inhibition of human recombinant PTP1B catalytic domain expressed in Escherichia coli strain BL21(DE3) using […] as substrate
T1 sequence (P18031 whole entry): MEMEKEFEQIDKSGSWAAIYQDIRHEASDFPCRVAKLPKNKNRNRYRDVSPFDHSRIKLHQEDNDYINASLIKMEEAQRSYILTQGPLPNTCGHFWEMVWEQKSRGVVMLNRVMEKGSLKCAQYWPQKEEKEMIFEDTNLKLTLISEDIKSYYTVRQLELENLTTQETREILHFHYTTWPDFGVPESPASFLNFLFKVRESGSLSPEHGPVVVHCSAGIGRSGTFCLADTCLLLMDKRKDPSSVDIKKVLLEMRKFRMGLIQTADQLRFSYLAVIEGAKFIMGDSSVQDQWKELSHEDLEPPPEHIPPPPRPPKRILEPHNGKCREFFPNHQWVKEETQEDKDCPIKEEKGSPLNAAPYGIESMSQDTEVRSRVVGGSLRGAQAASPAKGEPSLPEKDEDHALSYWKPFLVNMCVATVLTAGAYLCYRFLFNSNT

[3] = target: Dual specificity tyrosine-phosphorylation-regulated kinase 1A (Homo sapiens) (UniProt Q13627); assay: Inhibition of GST-fused human recombinant DYRK1A expressed in Escherichia coli using woodtide as substrate after 30 mins in presence of [gamma-33P]ATP by liquid scintillation counting
[4] = test system: HaCaT; assay: Cytotoxicity against human HaCaT cells assessed as reduction in cell viability after 24 hrs by MTT assay; format: cell-based
[5] = test system: DU-145; assay: Cytotoxicity against human DU145 cells assessed as reduction in cell viability after 24 hrs by MTT assay; format: cell-based; conditions: DU-145, 24 h

Structure (SMILES)	IC50 [1] [µM]	IC50 [2] [µM]	inhibition [3]	IC50 [4] [µM]	IC50 [5] [µM]
CCCCCCCCCCCCCC[C@@H](OP(=O)(O)O)[C@@H](O)CCCO	> 10	24	inactive	> 10	> 10
CCCCCCCCCCCCCC[C@@H](OP(=O)(O)O)[C@@H](O)CC[C@@H](O)[C@@H](O)CC[C@@H](O)CCCCCCC(=O)NCC(=O)O	> 10	11	inactive	> 10	> 10
O=C(O)CNC(=O)CCCCCC[C@H](O)CCCO	> 10	28	inactive	> 10	> 10
